Reference: PMC11191095, “QSAR Reveals Decreased Lipophilicity of Polar Residues Determines the Selectivity of Antimicrobial Peptide Activity” (ACS Omega, 2024)
Where a SMILES comes first, the peptide text is derived from it.

Legend:
Experiment in all cases: microbe, parasite or virus in culture
E. coli LEC001 = assay type: cell-based, Escherichia coli; settings: E. coli LEC001 (R); shown in µM
Method in brief: (§1)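 Peptides 128→2 μg/mL, 2-fold series; inoculum ~5 × 10^5 CFU/mL from overnight culture (OD600 0.01, mixed 1:1). MHB non-cation-adjusted for bacteria, RPMI 1640 + 2% glucose for fungi. 37 °C, 20 h, OD600. MIC50/MIC90 at 50%/90% inhibition; n ≥ 3.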

E. coli NCTC 12923 = assay type: cell-based, Escherichia coli; settings: E. coli NCTC 12923 (S); shown in µM
Method in brief: as §1

P. aeruginosa NCTC 13437 = assay type: cell-based, Pseudomonas aeruginosa; settings: P. aeruginosa NCTC 13437 (R); shown in µM
Method in brief: as §1

P. aeruginosa PAO1 = assay type: cell-based, Pseudomonas aeruginosa; settings: P. aeruginosa PAO1 (S); shown in µM
Method in brief: as §1

A. baumannii ATCC 17978 = assay type: cell-based, Acinetobacter baumannii; settings: A. baumannii ATCC 17978 (S); shown in µM
Method in brief: as §1

A. baumannii AYE = assay type: cell-based, Acinetobacter baumannii; settings: A. baumannii AYE (R); shown in µM
Method in brief: as §1

K. pneumoniae M6 = assay type: cell-based, Klebsiella pneumoniae; settings: K. pneumoniae M6 (S)
Method in brief: as §1

K. pneumoniae NCTC 13368 = assay type: cell-based, Klebsiella pneumoniae; settings: K. pneumoniae NCTC 13368 (R)
Method in brief: as §1

S. aureus (MRSA) 1199B = assay type: cell-based, Staphylococcus aureus; settings: S. aureus (MRSA) 1199B (R)
Method in brief: as §1

[1] = test system: S. aureus (MRSA) NCTC 13616; assay type: cell-based, Staphylococcus aureus; settings: S. aureus (MRSA) NCTC 13616 (R)
Method in brief: as §1

S. aureus (MRSA) USA300 = assay type: cell-based, Staphylococcus aureus; settings: S. aureus (MRSA) USA300 (R)
Method in brief: as §1

[2] = test system: S. aureus (MSSA) ATCC 9144; assay type: cell-based, Staphylococcus aureus; settings: S. aureus (MSSA) ATCC 9144 (S); shown in µM
Method in brief: as §1

C. auris TDG 1912 = assay type: cell-based, Candida auris; settings: C. auris TDG 1912
Method in brief: as §1

C. albicans NCPF 3281 = assay type: cell-based; settings: C. albicans NCPF 3281
Method in brief: as §1

C. glabrata NCPF 8018 = assay type: cell-based; settings: C. glabrata NCPF 8018
Method in brief: as §1

C. krusei NCPF 3876 = assay type: cell-based; settings: C. krusei NCPF 3876
Method in brief: as §1

[3] = test system: C. parapsilosis NCPF 3209; assay type: cell-based; settings: C. parapsilosis NCPF 3209
Method in brief: as §1

C. tropicalis NCPF 8760 = assay type: cell-based; settings: C. tropicalis NCPF 8760
Method in brief: as §1

[4] = MHB, 37 °C, 20 h, OD600, min. three biological repeats
[5] = 50% growth inhibition, RPMI 1640 + 2% glucose, 37 °C, 20 h
[6] = 90% growth inhibition, RPMI 1640 + 2% glucose, 37 °C, 20 h

Question: `CC(C)C[C@H](NC(=O)[C@H](CCCCN)NC(=O)[C@H](CCCCN)NC(=O)[C@H](C)NC(=O)[C@H](CC(C)C)NC(=O)[C@H](CCCCN)NC(=O)[C@H](CO)NC(=O)[C@H](CCCCN)NC(=O)[C@H](Cc1c[nH]c2ccccc12)NC(=O)[C@H](C)NC(=O)[C@H](CCCCN)NC(=O)[C@H](CCCCN)NC(=O)[C@H](CC(C)C)NC(=O)[C@H](Cc1ccccc1)NC(=O)[C@H](CO)NC(=O)CN)C(N)=O` [PS-PB-16a] (H-GSFLKKAWKSKLAKKL-NH2) was tested. Which “Modal MIC” value (E. coli LEC001) did it give?
Answer: 33.9 µM

Question: And the “Modal MIC” value (E. coli NCTC 12923)?
Answer: 8.5 µM

Question: What about the “Modal MIC” value (P. aeruginosa NCTC 13437) of the same compound?
Answer: 67.8 µM

Question: And the “Modal MIC” value (P. aeruginosa PAO1)?
Answer: 33.9 µM

Question: What about the “Modal MIC” value (A. baumannii ATCC 17978) of the same compound?
Answer: 8.5 µM

Question: What about the “Modal MIC” value (A. baumannii AYE) of the same compound?
Answer: 17 µM

Question: And the “Modal MIC” value (K. pneumoniae M6; [4])?
Answer: > 128 µg/mL

Question: And the “Modal MIC” value (K. pneumoniae M6; shown in µM)?
Answer: > 67.8 µM

Question: And the “Modal MIC” value (K. pneumoniae NCTC 13368; [4])?
Answer: > 128 µg/mL

Question: And the “Modal MIC” value (K. pneumoniae NCTC 13368; shown in µM)?
Answer: > 67.8 µM

Question: And the “Modal MIC” value (S. aureus (MRSA) 1199B; [4])?
Answer: > 128 µg/mL

Question: What about the “Modal MIC” value (S. aureus (MRSA) 1199B; shown in µM) of the same compound?
Answer: > 67.8 µM

Question: What about the “Modal MIC” value [1, 4] of the same compound?
Answer: > 128 µg/mL

Question: And the “Modal MIC” value ([1]; shown in µM)?
Answer: > 67.8 µM

Question: And the “Modal MIC” value (S. aureus (MRSA) USA300; [4])?
Answer: > 128 µg/mL

Question: And the “Modal MIC” value (S. aureus (MRSA) USA300; shown in µM)?
Answer: > 67.8 µM

Question: And the “Modal MIC” value [2]?
Answer: 17 µM

Question: What about the “Modal MIC50” value (C. auris TDG 1912; 50% growth inhibition, RPMI 1640 + 2% glucose, 37 °C, 20 h, OD600) of the same compound?
Answer: > 128 µg/mL

Question: What about the “Modal MIC90” value (C. auris TDG 1912; 90% growth inhibition, RPMI 1640 + 2% glucose, 37 °C, 20 h, OD600) of the same compound?
Answer: > 128 µg/mL

Question: What about the “Modal MIC50” value (C. auris TDG 1912; shown in µM) of the same compound?
Answer: > 67.8 µM

Question: And the “Modal MIC90” value (C. auris TDG 1912; shown in µM)?
Answer: > 67.8 µM

Question: And the “Modal MIC50” value (C. albicans NCPF 3281; [5])?
Answer: > 128 µg/mL

Question: And the “Modal MIC90” value (C. albicans NCPF 3281; [6])?
Answer: > 128 µg/mL

Question: What about the “Modal MIC50” value (C. albicans NCPF 3281; shown in µM) of the same compound?
Answer: > 67.8 µM

Question: What about the “Modal MIC90” value (C. albicans NCPF 3281; shown in µM) of the same compound?
Answer: > 67.8 µM

Question: What about the “Modal MIC50” value (C. glabrata NCPF 8018; [5]) of the same compound?
Answer: > 128 µg/mL

Question: And the “Modal MIC90” value (C. glabrata NCPF 8018; [6])?
Answer: > 128 µg/mL

Question: And the “Modal MIC50” value (C. glabrata NCPF 8018; shown in µM)?
Answer: > 67.8 µM

Question: And the “Modal MIC90” value (C. glabrata NCPF 8018; shown in µM)?
Answer: > 67.8 µM

Question: What about the “Modal MIC50” value (C. krusei NCPF 3876; [5]) of the same compound?
Answer: > 128 µg/mL

Question: What about the “Modal MIC90” value (C. krusei NCPF 3876; [6]) of the same compound?
Answer: > 128 µg/mL

Question: What about the “Modal MIC50” value (C. krusei NCPF 3876; shown in µM) of the same compound?
Answer: > 67.8 µM

Question: What about the “Modal MIC90” value (C. krusei NCPF 3876; shown in µM) of the same compound?
Answer: > 67.8 µM

Question: And the “Modal MIC50” value [3, 5]?
Answer: > 128 µg/mL

Question: What about the “Modal MIC90” value [3, 6] of the same compound?
Answer: > 128 µg/mL

Question: What about the “Modal MIC50” value ([3]; shown in µM) of the same compound?
Answer: > 67.8 µM

Question: And the “Modal MIC90” value ([3]; shown in µM)?
Answer: > 67.8 µM

Question: What about the “Modal MIC50” value (C. tropicalis NCPF 8760; [5]) of the same compound?
Answer: > 128 µg/mL

Question: And the “Modal MIC90” value (C. tropicalis NCPF 8760; [6])?
Answer: > 128 µg/mL

Question: And the “Modal MIC50” value (C. tropicalis NCPF 8760; shown in µM)?
Answer: > 67.8 µM

Question: What about the “Modal MIC90” value (C. tropicalis NCPF 8760; shown in µM) of the same compound?
Answer: > 67.8 µM
